Source: US20250236608A1, “EGFR INHIBITORS” (Blueprint Medicines Corporation, priority 2022, published 2025)
pIC50: −log10 of the molar value.

Tests used:
[1] = molecular target: EGFR (d746-750) (Homo sapiens (Human), UniProt P00533, DEL746-750); experiment: Biochemical EGFR inhibition assay, EGFR (d746-750); details: Caliper mobility shift; 1.0 mM ATP or ATP Km; read-out: Enz EGFR_Exon19-del746-750 IC50
[2] = molecular target: pEGFR (Tyr1068) in PC-9 cells (Ex19Del) (Homo sapiens (Human), UniProt P00533, DEL746-750); experiment: PC-9 pEGFR AlphaLISA assay; format: cell-based; details: 4 hours incubation, p-EGFR (Tyr1068) AlphaLISA, read-out: Ext pEGFR_PC-9 Ex19Del IC50
In short: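 First, cells settled overnight in 10% FBS medium. Second, a 10-point, 4-fold series of test agents was applied for 4 h at 37° C. Third, lysates were probed with AlphaLISA acceptor and donor beads, incubated overnight in the dark. Last, IC50 was taken from the dose-response.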

[3] = molecular target: EGFR L858R (Homo sapiens (Human), UniProt P00533, L858R); experiment: Biochemical EGFR inhibition assay, EGFR L858R; details: Caliper mobility shift; 1.0 mM ATP or ATP Km; read-out: Enz EGFR_L858R IC50
EGFR L858R, sequence (P00533 25-1210 L858R): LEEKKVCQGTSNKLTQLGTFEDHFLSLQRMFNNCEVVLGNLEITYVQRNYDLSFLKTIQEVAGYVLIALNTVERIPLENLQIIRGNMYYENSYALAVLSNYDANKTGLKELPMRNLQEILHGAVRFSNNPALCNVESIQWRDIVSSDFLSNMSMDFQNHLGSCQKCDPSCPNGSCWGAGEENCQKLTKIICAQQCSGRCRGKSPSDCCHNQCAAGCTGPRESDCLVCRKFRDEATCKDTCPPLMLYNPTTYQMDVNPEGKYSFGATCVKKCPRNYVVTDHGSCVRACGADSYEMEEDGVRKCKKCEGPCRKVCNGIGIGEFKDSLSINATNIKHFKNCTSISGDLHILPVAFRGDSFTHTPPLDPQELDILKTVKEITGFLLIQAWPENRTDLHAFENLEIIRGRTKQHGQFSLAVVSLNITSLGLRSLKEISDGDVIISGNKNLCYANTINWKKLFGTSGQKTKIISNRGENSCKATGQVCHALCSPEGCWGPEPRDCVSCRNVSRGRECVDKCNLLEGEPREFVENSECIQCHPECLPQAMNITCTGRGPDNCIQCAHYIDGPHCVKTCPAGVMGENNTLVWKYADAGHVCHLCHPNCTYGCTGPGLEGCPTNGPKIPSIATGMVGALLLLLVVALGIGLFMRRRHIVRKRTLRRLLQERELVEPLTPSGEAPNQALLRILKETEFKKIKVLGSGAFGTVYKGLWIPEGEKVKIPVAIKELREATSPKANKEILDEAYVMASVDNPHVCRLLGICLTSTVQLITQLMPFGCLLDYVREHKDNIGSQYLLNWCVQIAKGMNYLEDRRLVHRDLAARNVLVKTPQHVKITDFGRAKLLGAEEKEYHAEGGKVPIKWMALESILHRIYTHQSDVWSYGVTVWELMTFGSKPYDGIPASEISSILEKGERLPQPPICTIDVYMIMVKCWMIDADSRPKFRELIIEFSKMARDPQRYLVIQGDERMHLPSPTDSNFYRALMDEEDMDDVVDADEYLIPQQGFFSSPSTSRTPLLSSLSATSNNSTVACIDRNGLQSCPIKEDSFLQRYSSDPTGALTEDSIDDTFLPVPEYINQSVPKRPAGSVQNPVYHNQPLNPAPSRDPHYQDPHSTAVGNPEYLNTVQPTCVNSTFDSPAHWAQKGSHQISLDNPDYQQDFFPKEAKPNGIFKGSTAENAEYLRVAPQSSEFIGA

pEGFR (Tyr1068) in PC-9 cells (Ex19Del), sequence (P00533 other isoform, or with tags, fused parts or gaps del 746-750): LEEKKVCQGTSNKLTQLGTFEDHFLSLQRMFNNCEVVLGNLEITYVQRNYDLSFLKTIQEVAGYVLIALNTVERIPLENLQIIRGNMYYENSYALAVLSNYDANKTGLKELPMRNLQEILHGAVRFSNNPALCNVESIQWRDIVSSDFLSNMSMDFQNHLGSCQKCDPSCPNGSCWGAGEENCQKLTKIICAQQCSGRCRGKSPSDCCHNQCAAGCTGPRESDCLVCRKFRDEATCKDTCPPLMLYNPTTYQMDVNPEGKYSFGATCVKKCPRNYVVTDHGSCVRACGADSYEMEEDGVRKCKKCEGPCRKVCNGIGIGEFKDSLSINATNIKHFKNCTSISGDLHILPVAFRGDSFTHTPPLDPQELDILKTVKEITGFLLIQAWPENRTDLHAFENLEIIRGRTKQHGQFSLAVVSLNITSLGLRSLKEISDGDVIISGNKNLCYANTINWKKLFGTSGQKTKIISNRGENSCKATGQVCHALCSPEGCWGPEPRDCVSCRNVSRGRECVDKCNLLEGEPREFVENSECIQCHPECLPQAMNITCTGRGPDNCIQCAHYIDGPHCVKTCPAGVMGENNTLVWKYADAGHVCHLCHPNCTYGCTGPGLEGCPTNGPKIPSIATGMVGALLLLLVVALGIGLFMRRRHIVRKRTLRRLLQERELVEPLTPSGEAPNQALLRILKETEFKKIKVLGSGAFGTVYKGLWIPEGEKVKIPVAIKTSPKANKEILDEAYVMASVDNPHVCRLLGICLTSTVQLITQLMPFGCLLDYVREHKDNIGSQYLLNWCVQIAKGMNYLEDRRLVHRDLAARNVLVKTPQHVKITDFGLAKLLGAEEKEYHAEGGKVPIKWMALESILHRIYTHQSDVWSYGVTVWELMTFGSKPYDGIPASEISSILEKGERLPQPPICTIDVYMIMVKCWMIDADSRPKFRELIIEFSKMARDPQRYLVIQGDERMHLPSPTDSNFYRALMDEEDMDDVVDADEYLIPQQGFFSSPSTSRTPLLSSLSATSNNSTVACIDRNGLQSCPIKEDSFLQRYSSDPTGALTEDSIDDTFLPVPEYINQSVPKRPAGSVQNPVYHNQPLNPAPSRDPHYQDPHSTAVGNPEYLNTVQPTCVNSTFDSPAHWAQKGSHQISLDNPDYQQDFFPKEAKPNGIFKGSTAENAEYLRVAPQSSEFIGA
EGFR (d746-750), sequence (P00533 other isoform, or with tags, fused parts or gaps del 1-694/del 746-750 limits assumed): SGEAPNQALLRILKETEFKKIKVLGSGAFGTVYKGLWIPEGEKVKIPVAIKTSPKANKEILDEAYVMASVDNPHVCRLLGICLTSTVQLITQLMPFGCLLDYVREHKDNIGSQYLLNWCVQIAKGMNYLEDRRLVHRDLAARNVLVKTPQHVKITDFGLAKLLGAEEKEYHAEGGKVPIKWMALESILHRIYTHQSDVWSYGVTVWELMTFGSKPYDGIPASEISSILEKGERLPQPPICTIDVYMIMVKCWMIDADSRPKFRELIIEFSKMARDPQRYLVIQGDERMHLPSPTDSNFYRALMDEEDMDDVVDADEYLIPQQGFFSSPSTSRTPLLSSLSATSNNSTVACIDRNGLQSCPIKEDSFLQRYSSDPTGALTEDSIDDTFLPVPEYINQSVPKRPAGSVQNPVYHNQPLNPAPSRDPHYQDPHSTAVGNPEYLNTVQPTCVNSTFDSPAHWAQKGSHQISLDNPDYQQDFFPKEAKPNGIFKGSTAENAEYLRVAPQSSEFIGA

Q: How did the pIC50 [1] turn out when `COc1cc2ncnc(-c3cn(C)nc3-c3ccccc3)c2cc1OC(=O)N1CCN(C)CC1C` (stereo not drawn) [Example 57, 7-methoxy-4-(1-methyl-3-phenyl-1H-pyrazol-4-yl)quinazolin-6-yl 2,4-dimethylpiperazine-1-carboxylate] was run?
A: Its pIC50 is 8.77.

Q: And the pIC50 [2]?
A: Its pIC50 is 8.66.

Q: What about the pIC50 [3] of the same compound?
A: Its pIC50 is 8.64.

Q: `COc1cc2ncnc(-c3cn(C)nc3-c3ccccc3)c2cc1NC(=O)[C@H](C)N(C)C` (single isomer, unassigned) [Example 236, (S)-2-(dimethylamino)-N-(7-methoxy-4-(1-methyl-3-phenyl-1H-pyrazol-4-yl)quinazolin-6-yl) propenamide or (R)-2-(dimethylamino)-N-(7-methoxy-4-(1-methyl-3-phenyl-1H-pyrazol-4-yl)quinazolin-6-yl) propenamide] was tested. Which pIC50 [1] did it give?
A: Its pIC50 is 8.85.

Q: And the pIC50 [2]?
A: The pIC50 was 8.41.

Q: What about the pIC50 [3] of the same compound?
A: The pIC50 was 8.42.

Q: Which results are given for `COc1cc2ncnc(-c3cn(C)nc3-c3ccccc3)c2cc1NC(=O)c1ccc(C)nc1` [Example 323, N-(7-methoxy-4-(1-methyl-3-phenyl-1H-pyrazol-4-yl)quinazolin-6-yl)-6-methylnicotinamide]?
A: pIC50 [1]: 8.80; pIC50 [2]: 8.41; pIC50 [3]: 8.48

Q: With `CCn1ccc(C(=O)Nc2cc3c(-c4cn(C)nc4-c4ccccc4)ncnc3cc2OC)n1` [Example 202, 1-ethyl-N-(7-methoxy-4-(1-methyl-3-phenyl-1H-pyrazol-4-yl)quinazolin-6-yl)-1H-pyrazole-3-carboxamide] as the compound, how does the pIC50 [1] read?
A: The pIC50 was 9.22.

Q: And the pIC50 [2]?
A: Its pIC50 is 9.22.

Q: What about the pIC50 [3] of the same compound?
A: The pIC50 was 9.05.

Q: `CCOc1cc2ncnc(-c3cn(C)nc3-c3ccccc3)c2cc1NC(=O)c1ccc(C2CC2)nc1` [Example 297, 6-cyclopropyl-N-(7-ethoxy-4-(1-methyl-3-phenyl-1H-pyrazol-4-yl)quinazolin-6-yl)nicotinamide] was tested. Which pIC50 [1] did it give?
A: The pIC50 was 9.30.

Q: And the pIC50 [2]?
A: The pIC50 was 9.05.

Q: What about the pIC50 [3] of the same compound?
A: Its pIC50 is 9.05.

Q: How did the pIC50 [1] turn out when `CCOc1cc2ncnc(-c3cn(C)nc3-c3ccccc3)c2cc1[C@H](C)O` (single isomer, unassigned) [Example 103, (S)-1-(7-ethoxy-4-(1-methyl-3-phenyl-1H-pyrazol-4-yl)quinazolin-6-yl)ethan-1-ol or (R)-1-(7-ethoxy-4-(1-methyl-3-phenyl-1H-pyrazol-4-yl)quinazolin-6-yl)ethan-1-ol] was run?
A: The pIC50 was 9.22.

Q: And the pIC50 [2]?
A: Its pIC50 is 8.57.

Q: What about the pIC50 [3] of the same compound?
A: The pIC50 was 8.77.

Q: How did the pIC50 [1] turn out when `COc1cc2ncnc(-c3cn(C)nc3-c3ccccc3)c2cc1-c1cccc2cn(C)nc12` [Example 138, 7-methoxy-6-(2-methyl-2H-indazol-7-yl)-4-(1-methyl-3-phenyl-1H-pyrazol-4-yl)quinazoline] was run?
A: The pIC50 was 8.68.

Q: What about the pIC50 [2] of the same compound?
A: The pIC50 was 8.34.

Q: What about the pIC50 [3] of the same compound?
A: The pIC50 was 8.25.

Q: With `COc1cc2ncnc(-c3cn(C)nc3-c3ccccc3)c2cc1NC(=O)c1cnn(CC(F)(F)F)c1` [Example 203, N-(7-methoxy-4-(1-methyl-3-phenyl-1H-pyrazol-4-yl)quinazolin-6-yl)-1-(2,2,2-trifluoroethyl)-1H-pyrazole-4-carboxamide] as the compound, how does the pIC50 [1] read?
A: Its pIC50 is 8.96.

Q: What about the pIC50 [2] of the same compound?
A: The pIC50 was 8.31.

Q: And the pIC50 [3]?
A: The pIC50 was 8.68.

Q: What does the source list for `COc1cc2ncnc(-c3cn(C)nc3-c3ccccc3)c2nc1OC(C)c1nnnn1C` (stereo not drawn) [Example 29, 7-methoxy-6-(1-(1-methyl-1H-tetrazol-5-yl)ethoxy)-4-(1-methyl-3-phenyl-1H-pyrazol-4-yl)pyrido[3,2-d]pyrimidine]?
A: pIC50 [1]: 8.72; pIC50 [2]: 7.95; pIC50 [3]: 8.32

Q: `COc1cc2ncnc(-c3cn(C)nc3-c3ccccc3)c2cc1NC(=O)[C@H]1CCCN1C` (single isomer, unassigned) [Example 242, (R)—N-(7-methoxy-4-(1-methyl-3-phenyl-1H-pyrazol-4-yl)quinazolin-6-yl)-1-methylpyrrolidine-2-carboxamide or (S)—N-(7-methoxy-4-(1-methyl-3-phenyl-1H-pyrazol-4-yl)quinazolin-6-yl)-1-methylpyrrolidine-2-carboxamide] was tested. Which pIC50 [1] did it give?
A: The pIC50 was 8.68.

Q: And the pIC50 [2]?
A: The pIC50 was 8.18.

Q: And the pIC50 [3]?
A: Its pIC50 is 8.15.

Q: `COc1cc2ncnc(-c3cn(C)nc3-c3ccccc3)c2cc1OC(=O)N1CCN(C)C(C)(C)C1` [Example 77, 7-methoxy-4-(1-methyl-3-phenyl-1H-pyrazol-4-yl)quinazolin-6-yl 3,3,4-trimethylpiperazine-1-carboxylate] was tested. Which pIC50 [1] did it give?
A: The pIC50 was 8.46.

Q: And the pIC50 [2]?
A: Its pIC50 is 8.01.

Q: And the pIC50 [3]?
A: The pIC50 was 8.14.

Q: `COc1cc2ncnc(-c3cn(C)nc3-c3ccccc3)c2cc1[C@H](C)O` (single isomer, unassigned) [Example 116, (S)-1-(7-methoxy-4-(1-methyl-3-phenyl-1H-pyrazol-4-yl)quinazolin-6-yl)ethan-1-ol or (R)-1-(7-methoxy-4-(1-methyl-3-phenyl-1H-pyrazol-4-yl)quinazolin-6-yl)ethan-1-ol] was tested. Which pIC50 [1] did it give?
A: The pIC50 was 8.96.

Q: And the pIC50 [2]?
A: Its pIC50 is 7.94.

Q: And the pIC50 [3]?
A: Its pIC50 is 8.92.

Q: With `COc1cc2ncnc(-c3cn(C)nc3-c3ccccc3)c2cc1NC(=O)[C@@H]1CCN(C)C[C@H]1F` [Example 284, (3S,4S)-3-fluoro-N-(7-methoxy-4-(1-methyl-3-phenyl-1H-pyrazol-4-yl)quinazolin-6-yl)-1-methylpiperidine-4-carboxamide] as the compound, how does the pIC50 [1] read?
A: The pIC50 was 8.33.

Q: And the pIC50 [2]?
A: Its pIC50 is 7.73.

Q: And the pIC50 [3]?
A: Its pIC50 is 8.06.

Q: `COc1cc2ncnc(-c3cn(C)nc3-c3ccccc3)c2cc1OC(=O)N1CCN(C)[C@H]2C[C@H]21` (racemic) [Example 82, Cis-rac-7-methoxy-4-(1-methyl-3-phenyl-1H-pyrazol-4-yl)quinazolin-6-yl (1R,6S)-5-methyl-2,5-diazabicyclo[4.1.0]heptane-2-carboxylate] was tested. Which pIC50 [1] did it give?
A: The pIC50 was 8.48.

Q: And the pIC50 [2]?
A: Its pIC50 is 8.41.

Q: And the pIC50 [3]?
A: The pIC50 was 8.28.

Q: With `COc1cc2ncnc(-c3cn(C)nc3-c3ccccc3)c2cc1NC(=O)c1ccncc1C` [Example 191, N-(7-methoxy-4-(1-methyl-3-phenyl-1H-pyrazol-4-yl)quinazolin-6-yl)-3-methylisonicotinamide] as the compound, how does the pIC50 [1] read?
A: Its pIC50 is 8.74.

Q: And the pIC50 [2]?
A: Its pIC50 is 8.19.

Q: And the pIC50 [3]?
A: The pIC50 was 8.42.

Q: What does the source list for `COc1cc2ncnc(-c3cn(CCO)nc3-c3ccccc3)c2nc1NC(=O)c1cnn(C(F)(F)F)c1` [Example 415, N-(4-(1-(2-hydroxyethyl)-3-phenyl-1H-pyrazol-4-yl)-7-methoxypyrido[3,2-d]pyrimidin-6-yl)-1-(trifluoromethyl)-1H-pyrazole-4-carboxamide]?
A: pIC50 [1]: 8.82; pIC50 [2]: 8.11; pIC50 [3]: 8.52

Q: How did the pIC50 [1] turn out when `CCOc1cc2ncnc(-c3cn(C)nc3-c3ccc(F)cc3)c2nc1NC(=O)[C@]12COC[C@H]1C2` (single isomer, unassigned) [Example 384, (1S,5S)—N-(7-ethoxy-4-(3-(4-fluorophenyl)-1-methyl-1H-pyrazol-4-yl)pyrido[3,2-d]pyrimidin-6-yl)-3-oxabicyclo[3.1.0]hexane-1-carboxamide or (1R,5R)—N-(7-ethoxy-4-(3-(4-fluorophenyl)-1-methyl-1H-pyrazol-4-yl)pyrido[3,2-d]pyrimidin-6-yl)-3-oxabicyclo[3.1.0]hexane-1-carboxamide] was run?
A: The pIC50 was 9.52.

Q: And the pIC50 [2]?
A: Its pIC50 is 8.96.

Q: And the pIC50 [3]?
A: The pIC50 was 8.96.

Q: Which results are given for `COc1cc2ncnc(-c3cn(CC(F)F)nc3-c3ccccc3)c2cc1C1(O)CC1` [Example 126, 1-(4-(1-(2,2-difluoroethyl)-3-phenyl-1H-pyrazol-4-yl)-7-methoxyquinazolin-6-yl)cyclopropan-1-ol]?
A: pIC50 [1]: 9.05; pIC50 [2]: 8.49; pIC50 [3]: 8.72

Q: `COc1cc2ncnc(-c3cn(C)nc3-c3ccccc3)c2cc1NC(=O)c1cccnc1` [Example 325, N-(7-methoxy-4-(1-methyl-3-phenyl-1H-pyrazol-4-yl)quinazolin-6-yl)nicotinamide] was tested. Which pIC50 [1] did it give?
A: The pIC50 was 9.00.

Q: And the pIC50 [2]?
A: Its pIC50 is 8.70.

Q: What about the pIC50 [3] of the same compound?
A: Its pIC50 is 8.77.
